These results are taken from patent US20240158369A1, “PYRIMIDINE COMPOUND AS WEE-1 INHIBITOR” (WIGEN BIOMEDICINE TECHNOLOGY (SHANGHAI) CO., LTD., priority 2021, published 2024).

The target in test [1] is recombinant protein Wee-1 (Homo sapiens (Human), UniProt P30291). Briefly: HTRF assay for inhibiting enzymatic activity of recombinant protein Wee-1. Format: biochemical. As to conditions: compounds up to 200 nM, read-out: (IC50) Inhibitory activity against recombinant protein Wee-1. How it is done:
The inhibitory effect of the compounds on the enzyme activity of recombinant protein Wee-1 was determined by HTRF. The procedures are as follows:
After DMSO or serially diluted compounds (up to 200 nM, 1:5 diluted) and recombinant proteins were co-incubated in a kinase buffer at 37° C. for 30 min before Fluorescein-PolyGAT and ATP were added, and the reaction was initiated by addition of a substrate. After incubation at room temperature for 90 min, an antibody and a detection solution were added, and after further incubation at room temperature for 60 min, fluorescence values were detected (excitation wavelength: 340 nm, emission wavelengths: 495 and 520 nm). The 520 nm/495 nm fluorescence intensity ratio value was calculated, and compared with that of the DMSO group, and then the inhibition percentages and IC50 values of the compounds were calculated.
Background: Time-resolved FRET reads energy transfer from a long-lived donor to a nearby acceptor.

Test [2] concerns MIA PaCa-2 cells. Briefly: In-vitro anti-proliferative activity in combination with gemcitabine on MIA PaCa-2 cells. It is filed as cell-based. To be noted: 72 h. Here is the method: MIA PaCa-2 cells were seeded on a 384-well plate at 3000 cells/well, and 20 nM or 200 nM gemcitabine (GMC) was added. After overnight adherence culture, DMSO or the compounds serially 1:5-diluted from 100 nM were added. The viability was assessed 72 h after dosing by measuring the intracellular ATP content. The inhibition percentage of viable cells by the compounds was calculated by comparing with the DMSO group, and the IC50 value was calculated.

The subject of test [3] is HT29 subcutaneous xenograft tumor. Briefly: Mouse HT29 subcutaneous xenograft tumor model (Example 164), alone or with 15 mg/kg gemcitabine. It is filed as in vivo. How it is done:
(§1) HT29 is a colon cancer cell. Each nude mouse was grafted subcutaneously with 5×10^6HT29 cells. When the tumor grew to 100-200 mm^3, the compound was administered orally once a day alone or in combination with 15 mg/kg of gemcitabine injected intraperitoneally once a week, and the tumor volume was measured twice a week and at the end of treatment. Tumor growth inhibition of the compound was calculated according to the following equation: tumor growth inhibition (TGI)=1−(tumor volume on day 20 in treatment group−tumor volume on day 1 in treatment group)/(tumor volume on day 20 in vehicle control group−tumor volume on day 1 in treatment group).

For test [4] the test system is unchanged. Put plainly: Mouse HT29 subcutaneous xenograft tumor model (Example 165), with 30 mg/kg gemcitabine. It is filed as in vivo. To be noted: 30 mg/kg orally once a day in combination with 30 mg/kg of gemcitabine ip once a week; for TGI: day 20. How it is done:
as §1, with “day” for “day alone or”, “30” for “15”

Where [5] appears, read: with 200 nM gemcitabine, read-out: in combination with 200 nM GMC IC50.
The mark [6] stands for this setting: 30 mg/kg orally once a day in combination with 15 mg/kg of gemcitabine ip once a week, day 1.
[7] abbreviates: 30 mg/kg orally once a day in combination with 15 mg/kg of gemcitabine ip once a week, day 20.
Where [8] appears, read: monotherapy, 30 mg/kg orally once a day, nude mouse HT29, day 1.
Where [9] appears, read: monotherapy, 30 mg/kg orally once a day, nude mouse HT29, day 20.
Where [10] appears, read: with 20 nM gemcitabine, read-out: in combination with 20 nM GMC IC50.

Each structure is given as a SMILES string. Where two headings read alike, the source gives them in different places. A value given as a limit tells only on which side of the number the result lay.

Chain of recombinant protein Wee-1 (P30291 whole entry): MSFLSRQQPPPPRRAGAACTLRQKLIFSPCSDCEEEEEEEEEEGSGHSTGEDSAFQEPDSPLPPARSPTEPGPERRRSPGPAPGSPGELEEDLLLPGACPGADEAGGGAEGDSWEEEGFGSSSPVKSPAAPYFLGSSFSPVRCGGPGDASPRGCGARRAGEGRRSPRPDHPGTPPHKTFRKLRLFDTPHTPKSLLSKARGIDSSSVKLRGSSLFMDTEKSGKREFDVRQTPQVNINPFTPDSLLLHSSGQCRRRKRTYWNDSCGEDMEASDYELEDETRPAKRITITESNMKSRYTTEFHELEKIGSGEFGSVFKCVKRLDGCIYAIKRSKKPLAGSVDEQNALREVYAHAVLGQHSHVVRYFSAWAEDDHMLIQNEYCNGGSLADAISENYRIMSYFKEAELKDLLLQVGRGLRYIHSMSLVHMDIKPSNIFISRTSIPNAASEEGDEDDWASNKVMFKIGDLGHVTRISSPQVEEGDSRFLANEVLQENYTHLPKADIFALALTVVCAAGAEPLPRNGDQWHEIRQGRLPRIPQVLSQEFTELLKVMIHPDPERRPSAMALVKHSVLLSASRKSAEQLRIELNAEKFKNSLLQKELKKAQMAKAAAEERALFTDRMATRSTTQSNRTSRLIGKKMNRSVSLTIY

Broadly, the IC50 is the concentration at which inhibition is half-maximal. As to `CCc1cc(Nc2ncc(C#N)c(Nc3cccc(N=S(C)(C)=O)n3)n2)cc2c1CCN(C)C2` [Compound 13], the results for the IC50 in test [1] and in test [2] (setting [5]) were not above 10 nM and 1 nM, respectively. Besides, the “Tumor volume on day 1 of treatment (mm^3)” value in test [3] (setting [6]) and in test [3] (setting [8]) was 102 mm^3 throughout. Besides, the figures for the TGI in test [3] (setting [7]) and in test [3] (setting [9]) were 109% and 97%, respectively. In addition, the figures for the “Tumor volume on day 20 of treatment (mm^3)” value in test [3] (setting [7]) and in test [3] (setting [9]) were 14 mm^3 and 129 mm^3, respectively.
On to `CC(C)c1cc(Nc2ncc(C#N)c(Nc3cccc(N=S(C)(C)=O)n3)n2)cc2c1CCN(C)C2` [Compound 14], for which the IC50 was not above 10 nM in test [1] and 1 nM in test [2] (setting [10]). Besides, the “Tumor volume on day 20 of treatment (mm^3)” value in test [4] is on record as 38 mm^3. Moreover, the TGI in test [4] turned out to be 106%.
Regarding `CN1CCc2c(cc(Nc3ncc(C#N)c(Nc4cccc(N=S(C)(C)=O)n4)n3)cc2C2CC2)C1` [Compound 16], the IC50 in test [1] was not above 10 nM; in test [2] (setting [5]), 1 nM. Also, the “Tumor volume on day 1 of treatment (mm^3)” value in test [3] (setting [6]) and in test [3] (setting [8]) was 102 mm^3 throughout. Also, the TGI in test [3] (setting [7]) was 104%; in test [3] (setting [9]), 79%. For the same compound, the “Tumor volume on day 20 of treatment (mm^3)” value in test [3] (setting [7]) was 58 mm^3; in test [3] (setting [9]), 307 mm^3.
`CN1CCc2c(cc(Nc3ncc(C#N)c(Nc4cccc(N=S(C)(C)=O)n4)n3)cc2C2CCCC2)C1` [Compound 18]: the IC50 was not above 10 nM in test [1] and 2.1 nM in test [2] (setting [10]). Moreover, the “Tumor volume on day 20 of treatment (mm^3)” value in test [4] is 218 mm^3. Besides, the TGI in test [4] came to 92%.
As to `CC(C)Cc1cc(Nc2ncc(C#N)c(Nc3cccc(N=S(C)(C)=O)n3)n2)cc2c1CCN(C)C2` [Compound 87], in test [4], the “Tumor volume on day 20 of treatment (mm^3)” value is reported as 395 mm^3 and the TGI was 79%. Further, the IC50 in test [2] (setting [10]) was 1.8 nM.
On to `CN1CCc2c(cc(Nc3ncc(C#N)c(Nc4cccc(N=S(C)(C)=O)n4)n3)cc2C2CCC2)C1` [Compound 97], for which the 50% inhibitory concentration (IC50) in test [1] was not above 10 nM; in test [2] (setting [10]), 1.6 nM. Further, in test [4], the “Tumor volume on day 20 of treatment (mm^3)” value is on record as 278 mm^3. Besides, the TGI in test [4] was 88%.
For the compound `CN1CCc2c(cc(Nc3ncc(C#N)c(Nc4cccc(N=S(C)(C)=O)n4)n3)cc2-c2ccccc2)C1` [Compound 111], the figures for the IC50 in test [1] and in test [2] (setting [10]) were not above 10 nM and 6.5 nM, respectively.
For `CN1CCc2c(cc(Nc3ncc(C#N)c(Nc4cccc(N=S(C)(C)=O)n4)n3)cc2-c2cc[nH]n2)C1` [Compound 112], in that order: not above 10 nM and more than 100 nM.
Taken in the same sequence, the figures for `CN1CCc2c(cc(Nc3ncc(C#N)c(Nc4cccc(N=S(C)(C)=O)n4)n3)cc2-c2ccn(C)n2)C1` [Compound 113] were not above 10 nM and 11.7 nM.
For `CN1CCc2c(cc(Nc3ncc(C#N)c(Nc4cccc(N=S(C)(C)=O)n4)n3)cc2N2CCCCC2)C1` [Compound 115], in that order: not above 10 nM and 9.3 nM.
Consider `CN1CCc2c(cc(Nc3ncc(C#N)c(Nc4cccc(N=S(C)(C)=O)n4)n3)cc2N2CCOCC2)C1` [Compound 116], for which the 50% inhibitory concentration (IC50) in test [1] was not above 10 nM; in test [2] (setting [10]), 1.3 nM.
Taken in the same sequence, the figures for `CN1CCc2c(cc(Nc3ncc(C#N)c(Nc4cccc(N=S(C)(C)=O)n4)n3)cc2C2=CCOCC2)C1` [Compound 118] were not above 10 nM and 1.1 nM.
For `CN1CCN(c2cc(Nc3ncc(C#N)c(Nc4cccc(N=S(C)(C)=O)n4)n3)cc3c2CCN(C)C3)CC1` [Compound 119], in that order: not above 10 nM and 2.6 nM.
For `COC1CCN(c2cc(Nc3ncc(C#N)c(Nc4cccc(N=S(C)(C)=O)n4)n3)cc3c2CCN(C)C3)CC1` [Compound 120], in that order: not above 10 nM and 4.5 nM.
For `CN1CCc2c(cc(Nc3ncc(C#N)c(Nc4cccc(N=S(C)(C)=O)n4)n3)cc2CN2CCOCC2)C1` [Compound 121], the values for the half-inhibitory concentration (IC50) in test [1] and in test [2] (setting [10]) were not above 10 nM and 113 nM, respectively.
Taken in the same sequence, the figures for `C[C@@H]1CN(c2cc(Nc3ncc(C#N)c(Nc4cccc(N=S(C)(C)=O)n4)n3)cc3c2CCN(C)C3)C[C@@H](C)O1` [Compound 122] were not above 10 nM and 49 nM.
Taken in the same sequence, the figures for `CC1CN(c2cc(Nc3ncc(C#N)c(Nc4cccc(N=S(C)(C)=O)n4)n3)cc3c2CCN(C)C3)CCO1` (stereo not shown) [Compound 123] were not above 10 nM and 28 nM.
Taken in the same sequence, the figures for `COCc1cc(Nc2ncc(C#N)c(Nc3cccc(N=S(C)(C)=O)n3)n2)cc2c1CCN(C)C2` [Compound 124] were not above 10 nM and 2.7 nM.
Take `C[C@@H]1CN(c2cc(Nc3ncc(C#N)c(Nc4cccc(N=S(C)(C)=O)n4)n3)cc3c2CCN(C)C3)C[C@H](C)O1` [Compound 127]: the figures for the half-maximal inhibitory concentration (IC50) in test [1] and in test [2] (setting [10]) were not above 10 nM and 8.2 nM, respectively.
For `COC/C=C/c1cc(Nc2ncc(C#N)c(Nc3cccc(N=S(C)(C)=O)n3)n2)cc2c1CCN(C)C2` [Compound 129], in that order: not above 10 nM and 4.2 nM.
In the case of `CN(C)Cc1cc(Nc2ncc(C#N)c(Nc3cccc(N=S(C)(C)=O)n3)n2)cc2c1CCN(C)C2` [Compound 130], the results for the IC50 in test [1] and in test [2] (setting [10]) were not above 10 nM and 10 nM, respectively.
For `CN1CCc2c(CO)cc(Nc3ncc(C#N)c(Nc4cccc(N=S(C)(C)=O)n4)n3)cc2C1` [Compound 131], in that order: not above 10 nM and 6.7 nM.
With `CCN1CCc2c(cc(Nc3ncc(C#N)c(Nc4cccc(N=S(C)(C)=O)n4)n3)cc2C2CC2)C1` [Compound 137], the half-inhibitory concentration (IC50) is not above 10 nM in test [1] and 3.3 nM in test [2] (setting [10]). Also, the “Tumor volume on day 1 of treatment (mm^3)” value in test [3] (setting [6]) and in test [3] (setting [8]) was 102 mm^3 throughout. Also, the TGI is recorded as 100% in test [3] (setting [7]) and 51% in test [3] (setting [9]). The “Tumor volume on day 20 of treatment (mm^3)” value in test [3] (setting [7]) stood at 97 mm^3; in test [3] (setting [9]), 573 mm^3.
Take `CN1CCc2ccc(Nc3nccc(Nc4cccc(N=S(C)(C)=O)n4)n3)cc2C1` [Compound 145]: the IC50 in test [1] is more than 50 nM; in test [2] (setting [10]) it was more than 100 nM.
Take `CS(C)(=O)=Nc1cccc(Nc2nc(Nc3ccc4c(c3)CCC(N3CCCC3)CC4)ncc2C#N)n1` (stereo not shown) [Compound 146]: the IC50 is not above 10 nM in test [1] and 4.8 nM in test [2] (setting [10]).
Taken in the same sequence, the figures for `COc1cc2c(cc1Nc1ncc(C#N)c(Nc3cccc(N=S(C)(C)=O)n3)n1)CN(C)CC2` [Compound 147] were not above 10 nM and 50 nM.
For `CS(C)(=O)=Nc1cccc(Nc2nc(Nc3cc4c(c(C5CC5)c3)CCNC4)ncc2C#N)n1` [Compound 148], in that order: not above 10 nM and 2.1 nM.
For `CN1CCc2c(cc(Nc3ncc(C#N)c(Nc4ccccc4N=S(C)(C)=O)n3)cc2C2CC2)C1` [Compound 150], in that order: 10 to 50 nM and 3.5 nM.
Consider `CN1CCc2c(cc(Nc3ncc(C#N)c(Nc4cccc(N=S(C)(C)=O)n4)n3)cc2C2=CCCCC2)C1` [Compound 152], for which the figures for the 50% inhibitory concentration (IC50) in test [1] and in test [2] (setting [10]) were not above 10 nM and 3.8 nM, respectively.
Taken in the same sequence, the figures for `Cc1cc(Nc2ncc(C#N)c(Nc3cccc(N=S(C)(C)=O)n3)n2)ccc1N1CCN(C)CC1` [Compound 153] were not above 10 nM and 3.5 nM.
As for `Cc1cc(Nc2ncc(C#N)c(Nc3cccc(N=S(C)(C)=O)n3)n2)cc(C)c1N1CCN(C)CC1` [Compound 154], the IC50 in test [1] was not above 10 nM; in test [2] (setting [10]) it was 2.4 nM.
Taken in the same sequence, the figures for `CN1CCN(c2ccc(Nc3ncc(C#N)c(Nc4cccc(N=S(C)(C)=O)n4)n3)cc2C2CC2)CC1` [Compound 155] were not above 10 nM and 5.4 nM.
With `Cc1cc(Nc2ncc(C#N)c(Nc3cccc(N=S(C)(C)=O)n3)n2)cc(C2CC2)c1N1CCN(C)CC1` [Compound 156], the IC50 in test [1] was not above 10 nM; in test [2] (setting [10]), 6 nM.
